Common to all, as to format: cell-based
For experiment [1], the system named is histone 3 phosphorylation in colon carcinoma (HCT116). Nature of the experiment: p-Histone3 assay: inhibition of histone 3 phosphorylation in HCT116. The following applies: Homo sapiens, HCT-116, 24 h, HCT116, 24 hours compound treatment. On the procedure: Compounds were assayed for the inhibition of histone 3 phosphorylation in colon carcinoma (HCT116). Briefly, 20,000 cells/well were seeded in a 96-well black-walled, poly-d-lysine plates in RPMI+10% FBS and incubated at 37° C. in 5% CO2 overnight. The following day, the cells were treated with compounds for 24 hours at 37° C. Following compound treatment; plates were centrifuged at 1000 rpm for 2 minutes and washed twice with 100 μl of cold sterile TBS. Cells were then fixed with cold 3.7% formaldehyde in TBS (4° C. for 1 hour) and then permeabolized with 0.1% Triton-X-100 in TBS (room temperature for 30 minutes). Plates were then washed with of 0.25% BSA-TBS and blocked with BSA solution for 1 hour at room temperature while shaking. The supernatant was removed and replaced with diluted primary antibody (anti-phospho-histone 3, serine 10, Cell Signaling) at 1:250 in 0.25% BSA-TBS and incubated overnight at 4° C. The plates were washed and treated with diluted secondary antibody (anti-rabbit Eu-labeled) at 1:10000 in 0.25% BSA-TBS (room temperature for 1 hour). The antibody solution was removed from each well and washed eight times. The wash buffer was replaced with 50 μl pre-warmed enhancement solution and mixed on the orbital shaker for 10 minutes. Fluorescence was detected with a Victor V Fluorescence Detector. The data are expressed as percent inhibition: % inhibition=100−((Signal with inhibitor-background)/(Signal without inhibitor-background))×100.

For experiment [2], the system named is VEGF stimulated Phospho-ERK in HUVEC. Nature of the experiment: Growth factor stimulated p-ERK assay in HUVECs (VEGF stimulation, ERK1/2 Bioplex). The following applies: Homo sapiens, compound 2 hrs, then 50 ng/ml VEGF 10 min; for inhibition at 0.1 µM: @ 100 nM. The essentials: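 HUVECs in serum-free RPMI 1640/0.1% BSA pretreated with compound 2 hrs, then stimulated 10 min with 50 ng/ml VEGF (or bFGF). Lysate phospho-ERK1/2 quantified by bead-based Bio-Plex immunoassay on Luminex.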

In experiment [3] the test system is VEGFR stimulated HUVEC proliferation. Put plainly: BRDU growth factor stimulated proliferation of HUVEC (VEGF stimulation). The conditions noted are these: Homo sapiens, 72 h, 80 ng/ml VEGF, 3 days, BrdU incorporation. As to the method:
(§1) BRDU Growth Factor Stimulated Proliferation of HUVEC
(§2) Exponentially growing human umbilical vein endothelial cells (HUVEC; Cat# CC-2519A, Cambrex, Walkersville, Md.) were seeded at two thousand cells/well into Collagen IV-coated 96 well plates (Cat#35-4429, Becton Dickinson, Bedford, Mass.) in assay media containing RPMI-1640 (Cat#11875-093, Gibco, Carlsbad, Calif.), 0.5% charcoal-stripped serum (Cat# SH30068.03, HyClone, Logan, Utah), and 1% N-2 supplement (Cat#17502-048, Gibco, Carlsbad, Calif.). Fours hours after incubating the plates at 37° C. in 5% CO2, the cells were treated with different concentrations of compound (diluted in assay media with a final DMSO concentration=0.1%) and then were immediately stimulated with 80 ng/ml of vascular endothelial growth factor (VEGF, Cat#100-20, PeproTech, Rocky Hill, N.J.) or 1.5 ng/ml of basic fibroblast growth factor (bFGF, Catt#100-18B, PeproTech, Rocky Hill, N.J.). Treated cells were incubated for 3 days at 37° C. in 5% CO2. DNA synthesis was measured via the incorporation of bromodeoxyuridine (BrdU) into newly synthesized DNA using the Amersham Cell Proliferation BioTrack ELISA system (Cat# RPN250, Amersham, Piscataway, N.J.). Diluted BrdU solution (20 μl of stock BrdU diluted 1:20 fold into assay media) was added to each well and incubation proceeded for 6 hours at 37° C. in 5% CO2. The media was removed and the cells were fixed according to the specifications of the Amersham assay kit for 30 minutes at room temperature. After removing the fixative, blocking buffer (supplied by Amersham kit; 200 μl/well) was added and the plates were stored at 4° C. overnight. The blocking buffer was aspirated and peroxidase-labeled anti-BrdU antibody (supplied by Amersham kit; 100 μl/well) was added and incubated for 3 hours at room temperature. The plates were washed three times with wash buffer (supplied by Amersham kit; 300 μl/well/wash). Immediately following the washes, 100 μl of the TMB-substrate was dispensed into each well and the plates were further incubated for 30 minutes at room temperature. The reaction was terminated by the addition of 25 μl of 1M H2SO4. Plates were read immediately at 450 nm using a SpectraMAX 250 spectrophotometer plate reader (Molecular Devices, Sunnyvale, Calif.). The software utilized was SoftMAX pro v.2.4.1.
A general note: Dividing cells build labelled thymidine or BrdU into new DNA.

Experiment [4] has as its system FGFR stimulated HUVEC proliferation. Nature of the experiment: BRDU growth factor stimulated proliferation of HUVEC (bFGF stimulation). The following applies: Homo sapiens, 72 h, 1.5 ng/ml bFGF, 3 days, BrdU incorporation. On the procedure:
as §1, §2

Experiment [5] concerns HCT116 cells. Put plainly: Tumor cell proliferation (Alamar Blue), HCT116. The conditions noted are these: Homo sapiens, HCT-116, 72 h. The gist of the method:
(§3)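 Cells seeded at 3.0×10^3/well in RPMI with 10% FBS for 16 h, then treated with compound (added medium held 40 μM to 18 nM compound, 0.4% DMSO) for 72 h at 37 °C, 5% CO2. Viability by Alamar Blue, 3 h, fluorescence 544/590 nm. IC50 by linear regression of log concentration versus percent inhibition.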
On the technique in general: Alamar Blue is a resazurin reagent that responds to reducing activity.

For experiment [6], the system named is MDA-MB-231 cells. Nature of the experiment: Tumor cell proliferation (Alamar Blue), MDA-MB-231. The conditions noted are these: Homo sapiens, MDA-MB-231, 72 h. The gist of the method: as §3

Bounds are passed on as bounds.

For `CCOC(=O)c1cn2ncnc(N)c2c1-c1ccc(NC(=O)Nc2ccccc2C(F)(F)F)cc1` [Example 7, ethyl 4-amino-5-{4-[({[2-(trifluoromethyl)phenyl]amino}carbonyl)amino]phenyl}pyrrolo[2,1-f][1,2,4]triazine-6-carboxylate], the IC50 (in general, the midpoint of a concentration-inhibition curve) is greater than 0.5 µM in experiment [1] and less than 1 µM in experiment [1] (bound given in μM).
Take `CCOC(=O)c1cn2ncnc(N)c2c1-c1ccc(NC(=O)Nc2ccc3c(c2)OCO3)cc1` [Example 13, ethyl 4-amino-5-(4-{[(1,3-benzodioxol-5-ylamino)carbonyl]amino}phenyl)pyrrolo[2,1-f][1,2,4]triazine-6-carboxylate]: the 50% inhibitory concentration (IC50) in experiment [1] was greater than 0.5 µM; in experiment [1] (bound given in μM), less than 1 µM.
For the compound `Nc1ncnn2cc(C(=O)NCC(F)(F)F)c(-c3ccc(NC(=O)Nc4cc(C(F)(F)F)ccc4F)cc3)c12` [Example 70, 4-amino-5-{4-[({[2-fluoro-5-(trifluoromethyl)phenyl]amino}carbonyl)amino]phenyl}-N-(2,2,2-trifluoroethyl)pyrrolo[2,1-f][1,2,4]triazine-6-carboxamide], the inhibition (commonly the share of the control response that was lost under treatment) at 0.1 µM in experiment [2] was greater than 50%. For the same compound, the IC50 in experiment [3] was less than 10 nM; in experiment [4] it was less than 0.1 µM; in experiment [5] it was less than 0.5 µM; in experiment [6] it was less than 0.5 µM.
In experiment [1], `Nc1ncnn2cc(C(=O)NCC(F)(F)F)c(-c3ccc(NC(=O)Nc4ccc(F)c(C(F)(F)F)c4)cc3)c12` [Example 88, 4-amino-5-{4-[({[4-fluoro-3-(trifluoromethyl)phenyl]amino}carbonyl)amino]phenyl}-N-(2,2,2-trifluoroethyl)pyrrolo[2,1-f][1,2,4]triazine-6-carboxamide] gave an IC50 of less than 0.5 µM.
`Nc1ncnn2cc(C(=O)NCC(F)(F)F)c(-c3ccc(NC(=O)Nc4cccc(CC(F)(F)F)c4)cc3)c12` [Example 92, 4-amino-N-(2,2,2-trifluoroethyl)-5-{4-[({[3-(2,2,2-trifluoroethyl)phenyl]amino}carbonyl)amino]phenyl}pyrrolo[2,1-f][1,2,4]triazine-6-carboxamide] yielded an IC50 in experiment [1] of less than 0.5 µM.
As to `N#Cc1cn2ncnc(N)c2c1-c1ccc(NC(=O)Nc2cc(C(F)(F)F)ccc2F)cc1` [Example 99, N-[4-(4-amino-6-cyanopyrrolo[2,1-f][1,2,4]triazin-5-yl)phenyl]-N′-[2-fluoro-5-(trifluoromethyl)phenyl]urea], the inhibition at 0.1 µM in experiment [2] is less than 50%. The compound also came in with an inhibition at 1 µM in experiment [2] (@ 1 μM) greater than 50%. Further, the IC50 in experiment [3] is 100 to 500 nM; in experiment [4] it was less than 0.1 µM; in experiment [5] (bounds given in μM), 1.5 to 5 µM; in experiment [6], greater than 0.5 µM; in experiment [6] (bounds given in μM), less than 1.5 µM.
In experiment [1], `Nc1ncnn2cc(C(=O)NCC(F)(F)F)c(-c3ccc(NC(=O)Nc4cccc(C(F)(F)F)n4)cc3)c12` [Example 139, 4-amino-N-(2,2,2-trifluoroethyl)-5-{4-[({[6-(trifluoromethyl)pyridin-2-yl]amino}carbonyl)amino]phenyl}pyrrolo[2,1-f][1,2,4]triazine-6-carboxamide] had an IC50 of less than 0.5 µM.
Still for that read-out and setting: as for `CC(C)(C)NC(=O)c1cn2ncnc(N)c2c1-c1ccc(NC(=O)Nc2cccc(C(F)(F)F)n2)cc1` [Example 164, 4-amino-N-(tert-butyl)-5-{4-[({[6-(trifluoromethyl)pyridin-2-yl]amino}carbonyl)amino]phenyl}pyrrolo[2,1-f][1,2,4]triazine-6-carboxamide], the figure is less than 0.5 µM; as for `CC(C)(C)CNC(=O)c1cn2ncnc(N)c2c1-c1ccc(NC(=O)Nc2cccc(C(F)(F)F)n2)cc1` [Example 165, 4-amino-N-(2,2-dimethylpropyl)-5-{4-[({[6-(trifluoromethyl)pyridin-2-yl]amino}carbonyl)amino]phenyl}pyrrolo[2,1-f][1,2,4]triazine-6-carboxamide], less than 0.5 µM.
As for `Nc1ncnn2cc(-c3nc(CO)co3)c(-c3ccc(NC(=O)Nc4cc(C(F)(F)F)ccn4)cc3)c12` [Example 234, N-(4-{4-amino-6-[4-(hydroxymethyl)-1,3-oxazol-2-yl]pyrrolo[2,1-f][1,2,4]triazin-5-yl}phenyl)-N′-[4-(trifluoromethyl)pyridin-2-yl]urea], the IC50 in experiment [3] is 10 to 100 nM; in experiment [4], 0.1 to 0.5 µM; in experiment [5] (bounds given in μM) it was 1.5 to 5 µM; in experiment [6] (bounds given in μM), 1.5 to 5 µM.
On to `CC(C)(C)c1cc(NC(=O)Nc2ccc(-c3c(CO)cn4ncnc(N)c34)cc2)n(-c2ccc(F)cc2)n1` [Example 239, N-{4-[4-amino-6-(hydroxymethyl)pyrrolo[2,1-f][1,2,4]triazin-5-yl]phenyl}-N′-[3-tert-butyl-1-(4-fluorophenyl)-1H-pyrazol-5-yl]urea], for which the IC50 is 10 to 100 nM in experiment [3]; 0.1 to 0.5 µM in experiment [4]; greater than 0.5 µM in experiment [5]; less than 1.5 µM in experiment [5] (bounds given in μM); greater than 0.5 µM in experiment [6]; less than 1.5 µM in experiment [6] (bounds given in μM).
On to `N#CCc1cn2ncnc(N)c2c1-c1ccc(NC(=O)Nc2cc(C(F)(F)F)ccc2F)cc1` [Example 240, N-{4-[4-amino-6-(cyanomethyl)pyrrolo[2,1-f][1,2,4]triazin-5-yl]phenyl}-N′-[2-fluoro-5-(trifluoromethyl)phenyl]urea], for which the IC50 in experiment [3] was 100 to 500 nM; in experiment [4] it was greater than 0.5 µM; in experiment [4] (bound given in μM), less than 1 µM; in experiment [5] (bounds given in μM), 1.5 to 5 µM; in experiment [6] (bounds given in μM), 1.5 to 5 µM.
In the case of `Nc1ncnn2cc(CO)c(-c3ccc(NC(=O)Nc4cc(C(F)(F)F)ccn4)c(F)c3)c12` [Example 243, N-{4-[4-amino-6-(hydroxymethyl)pyrrolo[2,1-f][1,2,4]triazin-5-yl]-2-fluorophenyl}-N′-[4-(trifluoromethyl)pyridin-2-yl]urea], the IC50 was in the range of 10 to 100 nM in experiment [3], 0.1 to 0.5 µM in experiment [4], 1.5 to 5 µM in experiment [5] (bounds given in μM) and 1.5 to 5 µM in experiment [6] (bounds given in μM).
As for `COCc1cn2ncnc(N)c2c1-c1ccc(NC(=O)Nc2cc(C(F)(F)F)ccn2)c(F)c1` [Example 247, N-{4-[4-amino-6-(methoxymethyl)pyrrolo[2,1-f][1,2,4]triazin-5-yl]-2-fluorophenyl}-N′-[4-(trifluoromethyl)pyridin-2-yl]urea], the IC50 in experiment [3] was in the range of 100 to 500 nM; in experiment [4], 0.1 to 0.5 µM; in experiment [5] (bounds given in μM), 1.5 to 5 µM; in experiment [6] (bounds given in μM), 1.5 to 5 µM.

The values above are taken from patent US7563791B2, “Pyrrolotriazine derivatives useful for treating hyper-proliferative disorders and diseases associated with angiogenesis” (Bayer Pharmaceuticals Corporation, priority 2004, dated 2009).
